Data on 26 compounds can be found in ChEMBL document CHEMBL1153990, “Exploring the PI3K alpha and gamma binding sites with 2,6-disubstituted isonicotinic derivatives” (Bioorg Med Chem Lett, 2009).

Assay [1] addresses Phosphatidylinositol 4,5-bisphosphate 3-kinase catalytic subunit gamma isoform (Homo sapiens, UniProt P48736). The assay can be described thus: Inhibition of PI3Kgamma by luminescent kinase glo assay. For orientation: In Kinase-Glo more light means more ATP remaining.
The target in assay [2] is Phosphatidylinositol 4,5-bisphosphate 3-kinase catalytic subunit alpha isoform (Homo sapiens, UniProt P42336). The assay can be described thus: Inhibition of PI3Kalpha by luminescent kinase glo assay. The conditions noted are these: for inhibition: concentration not given here.
Assay [3] in a line: Selectivity ratio of IC50 for PI3Kgamma to IC50 for PI3Kalpha.

Chain of Phosphatidylinositol 4,5-bisphosphate 3-kinase catalytic subunit alpha isoform (P42336 whole entry, canonical isoform): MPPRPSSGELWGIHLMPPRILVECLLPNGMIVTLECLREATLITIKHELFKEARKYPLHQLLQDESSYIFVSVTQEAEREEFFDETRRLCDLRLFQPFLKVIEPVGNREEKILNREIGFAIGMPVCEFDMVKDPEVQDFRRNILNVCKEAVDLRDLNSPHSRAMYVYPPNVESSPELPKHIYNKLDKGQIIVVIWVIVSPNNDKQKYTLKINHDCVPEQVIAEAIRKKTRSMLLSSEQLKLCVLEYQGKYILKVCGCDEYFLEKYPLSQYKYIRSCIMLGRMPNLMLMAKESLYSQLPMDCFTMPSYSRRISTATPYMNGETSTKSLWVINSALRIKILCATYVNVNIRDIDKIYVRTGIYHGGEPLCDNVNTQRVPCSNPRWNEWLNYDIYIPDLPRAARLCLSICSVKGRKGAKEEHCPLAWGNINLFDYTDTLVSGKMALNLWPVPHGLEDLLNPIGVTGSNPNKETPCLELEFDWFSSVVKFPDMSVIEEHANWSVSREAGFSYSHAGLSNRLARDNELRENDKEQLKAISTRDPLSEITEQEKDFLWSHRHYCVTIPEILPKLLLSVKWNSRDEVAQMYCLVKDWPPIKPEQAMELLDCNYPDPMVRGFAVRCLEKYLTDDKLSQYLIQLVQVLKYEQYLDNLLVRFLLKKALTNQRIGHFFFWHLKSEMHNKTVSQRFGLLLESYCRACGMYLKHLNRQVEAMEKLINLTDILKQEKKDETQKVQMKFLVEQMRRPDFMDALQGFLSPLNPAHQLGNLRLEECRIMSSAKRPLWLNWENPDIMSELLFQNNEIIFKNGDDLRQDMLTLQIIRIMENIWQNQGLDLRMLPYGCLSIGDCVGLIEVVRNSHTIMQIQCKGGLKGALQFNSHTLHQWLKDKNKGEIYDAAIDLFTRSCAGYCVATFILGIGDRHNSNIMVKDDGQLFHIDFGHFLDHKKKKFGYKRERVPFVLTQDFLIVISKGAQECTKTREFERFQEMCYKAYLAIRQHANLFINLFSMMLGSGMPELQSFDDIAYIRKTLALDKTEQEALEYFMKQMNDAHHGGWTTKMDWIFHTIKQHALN
Chain of Phosphatidylinositol 4,5-bisphosphate 3-kinase catalytic subunit gamma isoform (P48736 whole entry, canonical isoform): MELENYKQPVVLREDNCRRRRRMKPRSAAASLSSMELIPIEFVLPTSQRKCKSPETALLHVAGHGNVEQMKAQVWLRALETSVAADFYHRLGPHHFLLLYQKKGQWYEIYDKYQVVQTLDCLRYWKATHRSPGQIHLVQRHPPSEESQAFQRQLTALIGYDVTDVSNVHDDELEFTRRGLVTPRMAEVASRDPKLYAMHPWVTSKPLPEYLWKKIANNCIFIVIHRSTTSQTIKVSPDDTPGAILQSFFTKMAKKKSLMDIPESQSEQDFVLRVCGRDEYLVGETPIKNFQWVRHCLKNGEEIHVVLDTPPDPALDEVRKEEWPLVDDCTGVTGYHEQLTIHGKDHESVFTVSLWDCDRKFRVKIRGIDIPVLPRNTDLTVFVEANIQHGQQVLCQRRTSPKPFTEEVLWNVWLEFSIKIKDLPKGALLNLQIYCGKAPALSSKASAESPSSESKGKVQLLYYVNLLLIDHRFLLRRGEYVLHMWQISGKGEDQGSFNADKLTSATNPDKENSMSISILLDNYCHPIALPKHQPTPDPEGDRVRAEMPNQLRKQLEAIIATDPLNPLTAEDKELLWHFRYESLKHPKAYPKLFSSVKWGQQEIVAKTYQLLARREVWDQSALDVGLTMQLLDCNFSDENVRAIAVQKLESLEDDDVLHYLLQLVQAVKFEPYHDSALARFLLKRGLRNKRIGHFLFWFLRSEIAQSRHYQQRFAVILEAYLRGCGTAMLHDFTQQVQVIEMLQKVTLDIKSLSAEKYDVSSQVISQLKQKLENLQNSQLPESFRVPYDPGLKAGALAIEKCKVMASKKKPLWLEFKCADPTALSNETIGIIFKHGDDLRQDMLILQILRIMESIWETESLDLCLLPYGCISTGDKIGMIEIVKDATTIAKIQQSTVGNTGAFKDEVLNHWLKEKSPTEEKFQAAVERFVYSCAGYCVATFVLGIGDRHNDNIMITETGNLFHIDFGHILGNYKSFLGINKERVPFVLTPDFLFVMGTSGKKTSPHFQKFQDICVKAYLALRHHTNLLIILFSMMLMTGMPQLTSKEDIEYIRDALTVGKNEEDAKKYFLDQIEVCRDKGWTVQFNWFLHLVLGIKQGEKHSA

In the case of `Cc1cc(F)ccc1NCc1cc(C(=O)O)cc(NCCO)n1`, the figures for the half-inhibitory concentration (IC50) in assay [1] and in assay [2] were over 100 µM and 100 µM, respectively.

Turning to `Cc1cc(F)ccc1NCc1cc(C(=O)O)cc(-c2ccncc2)n1`, the half-inhibitory concentration (IC50) – broadly, the concentration that inhibits the measured activity by half – in assay [1] was found to be 42 µM; in assay [2], 29 µM.

For `Cc1cc(F)ccc1NCc1cc(C(=O)O)cc(-c2ccccc2O)n1`, the IC50 in assay [1] and in assay [2] was over 100 µM throughout.

Consider `Cc1cc(F)ccc1NCc1cc(C(=O)N2CCC(O)C2)cc(N2CCC(O)C2)n1` (stereo not drawn), for which the IC50 in assay [1] and in assay [2] was over 100 µM in each case.

With `Cc1cc(F)ccc1NCc1cc(C(=O)O)cc(N(C)CCO)n1`, the half-inhibitory concentration (IC50) in assay [1] and in assay [2] was over 100 µM each time.

Turning to `Cc1cc(F)ccc1OCc1cc(C(=O)O)cc(N2CCOCC2)n1`, the figures for the IC50 in assay [1] and in assay [2] were 23 µM and 7 µM, respectively. Moreover, the Ratio IC50 in assay [3] stood at 6.

`Cc1cc(F)ccc1NCc1cc(C(=O)O)cc(N2CCNCC2)n1`: the IC50 in assay [1] and in assay [2] was over 100 µM each time.

For `Cc1cc(F)ccc1NCc1cc(CO)cc(N2CCOCC2)n1`, the results for the IC50 in assay [1] and in assay [2] were at least 100 µM and 20 µM, respectively.

Regarding `CCOC(=O)c1ccnc(N2CCOCC2)c1`, the IC50 in assay [1] is over 100 µM; in assay [2], 51 µM.

As to `Cc1cc(F)ccc1NCc1cc(C=O)cc(N2CCOCC2)n1`, the IC50 in assay [1] and in assay [2] was 100 µM in each case.

On to `CCOC(=O)c1cc(CNc2ccc(F)cc2C)nc(N2CCOCC2)c1`, for which the half-maximal inhibitory concentration (IC50) in assay [1] was under 10 µM. Further, in assay [2], the inhibition (commonly the relative decrease from the control value, in per cent) was under 10%.

Consider `Cc1cc(F)ccc1OCc1cc(C(=O)NO)cc(N2CCOCC2)n1`, for which the half-maximal inhibitory concentration (IC50) in assay [1] is 10 µM; in assay [2], at least 10 µM.

In the case of `O=C(O)c1ccnc(N2CCOCC2)c1`, the IC50 in assay [1] is over 100 µM; in assay [2], 36 µM.

`Cc1cc(F)ccc1NCc1cc(C(=O)O)cc(N2CCCCC2)n1` showed a half-inhibitory concentration (IC50) in assay [1] of over 100 µM. In assay [2], this compound returned an inhibition of under 10%.

`CCOC(=O)c1cc(COc2ccc(F)cc2C)nc(N2CCOCC2)c1` showed a concentration for half-maximal inhibition (IC50) in assay [1] of under 10 µM. This compound also returned an inhibition in assay [2] of under 10%.

On to `Cc1cc(F)ccc1NCc1cc(C(=O)O)cc(-c2cccc(O)c2)n1`, for which the IC50 in assay [1] came out at 42 µM; in assay [2] it was 100 µM.

As for `Cc1cc(F)ccc1NCc1cc(C(=O)O)cc(-c2cccnc2)n1`, the IC50 in assay [1] and in assay [2] was over 100 µM each time.

As for `Cc1cc(F)ccc1OCc1cc(C(N)=O)cc(N2CCOCC2)n1`, the half-maximal inhibitory concentration (IC50) in assay [1] was under 10 µM; in assay [2] it was over 10 µM.

Compound `Cc1cc(F)ccc1NCc1cc(C(=O)O)cc(N2CCCC2)n1` displayed an IC50 in assay [1] of over 100 µM. In assay [2], the inhibition is under 10%.

Regarding `Cc1cc(F)ccc1NCc1cc(C(=O)O)cc(N(CCO)CCO)n1`, the half-maximal inhibitory concentration (IC50) in assay [1] and in assay [2] was over 100 µM each time.

For `Cc1cc(F)ccc1OCc1cc(C(=O)NCCO)cc(N2CCOCC2)n1`, the IC50 in assay [1] and in assay [2] was at least 50 µM each time.

Take `Cc1cc(F)ccc1NCc1cc(C(=O)NCCO)cc(NCCO)n1`: the 50% inhibitory concentration (IC50) in assay [1] and in assay [2] was over 100 µM each time.

As to `Cc1cc(F)ccc1NCc1cc(C(=O)O)cc(Cl)n1`, the IC50 in assay [1] and in assay [2] was over 100 µM each time.

Consider `Cc1cc(F)ccc1NCc1cc(C(=O)O)cc(N2CCOCC2)n1`, for which the IC50 in assay [1] is 34 µM; in assay [2], 5 µM.

As for `Cc1cc(F)ccc1NCc1cc(C(=O)O)cc(-c2ccc(O)cc2)n1`, the 50% inhibitory concentration (IC50) in assay [1] and in assay [2] was 100 µM in each case.

Take `Cc1cc(F)ccc1NCc1cc(C(=O)O)cc(N2CCC(O)C2)n1` (stereo not drawn): the IC50 in assay [1] and in assay [2] was over 100 µM throughout.
